According to patent US6859735B1, “Computer systems for identifying pathways of drug action” (priority 1998, dated 2005):

Columns and labels:
[1] = system: pathway originating at calcineurin; experiment: Genome-wide correlation of FK506 expression responses against combined Cyc A and methotrexate pathway responses (scaling parameter); format: cell-based, Saccharomyces cerevisiae; details: location of the correlation peak versus scaling parameter applied to FK506 data
Procedure: The gene expression measurements illustrated in FIGS. 8A-C were made as detailed below. To generate the cyclosporin dose response curves, an overnight starter culture of S.cerevisiae strain R563 (Genotype: Mat a ura3-52 lys2-801 ade2-101 trpl-Δ63 his3-Δ200 leu2-Δ1 his3::HIS3) was diluted into 200 ml of YAPD plus 10 mM CaCl2 medium (see, e.g., Ausubel et al., eds., 1996, Current Protocols in Molecular Biology, John Wiley & Sons, Inc., especially ch. 13) to an OD600 of 0.1 and grown at 30° C. with 300 rpm shaking. After a 30 min, cyclosporin A dissolved in ethanol was added to cultures at final concentrations of 60, 30, 15, 6 and 3 μg/ml. Control cultures were treated with the same volume of just ethanol. Growth was monitored by OD600 and cells were harvested at OD600=1.4+/−0.1 by centrifugation for 2 min at ambient temperature in a Sorvall RC5C+centrifuge in a SLA-1500 rotor. […]
In all cases, polyA^+ RNA was isolated by oligo-dT cellulose chromatography using two selections by standard protocols (see, e.g., Sambrook et al. 1989, Molecular Cloning A Laboratory Manual, Cold Spring Harbor Laboratory Press). […] Extent of hybridization was determined by scanning with a prototype multi-frame CCD camera slides produced by Applied Precision, Inc. Images were processed by informatics and imported into the Inpharma database and analyzed using the MatLab data analysis package. […]

wild type yeast cells = details: at 10 micrograms/ml doxycycline, Gari et al. 1997; cited from earlier work
yeast = experiment: Growth of yeast under methotrexate exposure; format: cell-based, Saccharomyces cerevisiae; details: 100 μm methotrexate titration
Procedure: To generate methotrexate dose response curves, an overnight starter culture of S.cerevisiae strain BY4741 (Genotype: Mat a his3Δ0 leu2D0 ura3Δ0 met15Δ0) was diluted into 200 ml of SC medium (see, e.g., Ausubel et al, ch. 13) to an OD600 of 0.1 and grown at 30° C. with 300 rpm shaking. After 30 min, methotrexate dissolved in water was added to cultures at final concentrations of 200, 100, 50, 25, 6.2, and 3.1 μM. Control cultures were treated with the same volume of water. The rest of the procedure was as above.

yeast gene YOL031C = experiment: Transcript array gene expression response to graded methotrexate exposure, Hill function fit; format: cell-based, Saccharomyces cerevisiae
Text: In model fitting, the drug and pathway responses are interpolated by approximating each by a single parameterized function. An exemplary model-fitting function appropriate for approximating transcriptional state data is the Hill function, which has adjustable parameters a, u0, and n. [formula]
The adjustable parameters are selected independently for each cellular constituent of the drug response and for each cellular constituent of the pathway response. Preferably, the adjustable parameters are selected so that for each cellular constituent of each pathway response the sum of the squares of the distances of H(pi,l) from Ri,k(pi,l) is minimized, and so that for each cellular constituent of the drug response the sum of the squares of the distances of H(tl) from Dk(tl) is minimized. This preferable parameter adjustment method is known in the art as a least squares fit of H( ) to Ri,k( ) or to Dk( ). Other possible model functions are based on polynomial fitting, for example by various known classes of polynomials.
Model fitting with a Hill function is illustrated with respect to FIGS. 3 and 4. As discussed, FIG. 3 illustrates an example of a pathway perturbed by methotrexate and identified by measurement. This figure illustrates the mRNA expression levels of 30 genes of the yeast S. cerevisiae that, of the approximately 6000 genes in the genome of this yeast, had the largest expression changes in response to six different exposure levels of methotrexate. FIG. 4 illustrates a fit of the pathway response of one of these gene expression levels by a Hill function. […]
In all cases, polyA^+ RNA was isolated by oligo-dT cellulose chromatography using two selections by standard protocols (see, e.g., Sambrook et al. 1989, Molecular Cloning A Laboratory Manual, Cold Spring Harbor Laboratory Press). […] Extent of hybridization was determined by scanning with a prototype multi-frame CCD camera slides produced by Applied Precision, Inc. Images were processed by informatics and imported into the Inpharma database and analyzed using the MatLab data analysis package.

SMILES: C=CC[C@@H]1/C=C(\C)C[C@H](C)C[C@H](OC)[C@H]2O[C@@](O)(C(=O)C(=O)N3CCCC[C@H]3C(=O)O[C@H](/C(C)=C/[C@@H]3CC[C@@H](O)[C@H](OC)C3)[C@H](C)[C@@H](O)CC1=O)[C@H](C)C[C@@H]2OC [FK506]
- approximate relative potency of FK506 and Cyc A [1]: approximately 63

SMILES: C[C@H]1c2cccc(O)c2C(=O)C2=C(O)[C@]3(O)C(=O)C(C(N)=O)=C(O)[C@@H](N(C)C)[C@@H]3[C@@H](O)[C@@H]21 [doxycycline]
- effect on the growth rate (wild type yeast cells): no significant effect

SMILES: CN(Cc1cnc2nc(N)nc(N)c2n1)c1ccc(C(=O)N[C@@H](CCC(=O)O)C(=O)O)cc1 [methotrexate]
- growth defect (yeast): 50%
- Hill function parameter a (yeast gene YOL031C; least squares fit of YOL031C expression response (log expression ratio amplitude)): −0.61
- Hill function parameter n (yeast gene YOL031C; least squares fit of YOL031C expression response to six methotrexate exposure levels): 2
- Hill function parameter log10(u0) (yeast gene YOL031C; least squares fit of YOL031C expression response, methotrexate exposure levels 3-200 μm): 1.26
